Test results as given in patent publication US20240270762A1, “PENICILLIN-BINDING PROTEIN INHIBITORS” (priority 2021, published 2024).
≈ marks a conversion by molar mass, not a printed value.

Tests used:
P. aeruginosa CDC-0054 = assay: microbe, parasite or virus in culture; assay type: cell-based; conditions: Pseudomonas aeruginosa, CDC0054, read-out: Minimum inhibitory concentration, P. aeruginosa CDC-0054
[1] = system: B. thailandensis ATCC 700388; assay: microbe, parasite or virus in culture; assay type: cell-based; conditions: Burkholderia thailandensis, ATCC700388, read-out: Minimum inhibitory concentration (MIC), B. thailandensis ATCC 700388
A. baumannii ATCC 17978 = assay: microbe, parasite or virus in culture; assay type: cell-based; conditions: Acinetobacter baumannii, ATCC17978, read-out: Minimum inhibitory concentration (MIC), A. baumannii ATCC 17978
P. aeruginosa ATCC 27853 = assay: microbe, parasite or virus in culture; assay type: cell-based; conditions: Pseudomonas aeruginosa, ATCC27853, read-out: Minimum inhibitory concentration, P. aeruginosa ATCC 27853
A. baumannii CDC-0045 = assay: microbe, parasite or virus in culture; assay type: cell-based; conditions: Acinetobacter baumannii, CDC0045, read-out: Minimum inhibitory concentration (MIC), A. baumannii CDC-0045
[2] = system: B. humptydooensis ATCC BAA-2767; assay: microbe, parasite or virus in culture; assay type: cell-based; conditions: Burkholderia humptydooensis, ATCCBAA2767, read-out: Minimum inhibitory concentration (MIC), B. humptydooensis ATCC BAA-2767
A. baumannii ATCC 19606 = assay: microbe, parasite or virus in culture; assay type: cell-based; conditions: Acinetobacter baumannii, ATCC19606, read-out: Minimum inhibitory concentration (MIC), A. baumannii ATCC 19606
A. baumannii PBP2 = A. baumannii PBP2 (Acinetobacter baumannii, UniProt D0C8Z9); assay: Bocillin-FL competition binding via gel filtration, A. baumannii PBP2
Chain of A. baumannii PBP2 (D0C8Z9 whole entry): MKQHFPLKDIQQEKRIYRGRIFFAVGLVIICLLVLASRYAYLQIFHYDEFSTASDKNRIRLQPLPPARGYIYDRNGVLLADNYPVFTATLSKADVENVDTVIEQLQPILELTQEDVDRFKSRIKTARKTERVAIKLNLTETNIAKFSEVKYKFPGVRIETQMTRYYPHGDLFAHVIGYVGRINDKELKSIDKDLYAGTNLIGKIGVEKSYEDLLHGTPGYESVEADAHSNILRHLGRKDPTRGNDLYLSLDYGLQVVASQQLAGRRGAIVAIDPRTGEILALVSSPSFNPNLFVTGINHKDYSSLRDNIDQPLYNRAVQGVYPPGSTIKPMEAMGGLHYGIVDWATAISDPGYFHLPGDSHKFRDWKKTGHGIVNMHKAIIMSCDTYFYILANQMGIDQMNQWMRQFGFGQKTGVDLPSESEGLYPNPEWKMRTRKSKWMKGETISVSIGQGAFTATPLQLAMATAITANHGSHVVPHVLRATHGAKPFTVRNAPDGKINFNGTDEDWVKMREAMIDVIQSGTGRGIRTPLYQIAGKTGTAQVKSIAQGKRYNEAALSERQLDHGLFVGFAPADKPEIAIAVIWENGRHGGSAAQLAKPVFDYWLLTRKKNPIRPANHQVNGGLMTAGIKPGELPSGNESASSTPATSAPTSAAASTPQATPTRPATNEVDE
Procedure, shortened: (§1)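 Enzyme was pre-incubated with rising inhibitor concentrations, then Bocillin-FL was added and incubated 15 minutes more. Bound probe was separated by gel filtration and fluorescence read. EC50 came from fitting fraction of PBP labelled versus inhibitor concentration to a Hill equation with ymin, ymax and n.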

P. aeruginosa CDC-0110 = assay: microbe, parasite or virus in culture; assay type: cell-based; conditions: Pseudomonas aeruginosa, CDC0110, read-out: Minimum inhibitory concentration, P. aeruginosa CDC-0110
A. baumannii PBP1a = molecular target: T1, A. baumannii PBP1a (Acinetobacter baumannii, UniProt A0ABX6CK30); assay: Bocillin-FL competition binding via gel filtration, A. baumannii PBP1a; conditions: competition binding assay using Bocillin-FL via gel filtration; read-out: A. baumannii PBP1a Potency
T1 sequence (A0ABX6CK30 1-851): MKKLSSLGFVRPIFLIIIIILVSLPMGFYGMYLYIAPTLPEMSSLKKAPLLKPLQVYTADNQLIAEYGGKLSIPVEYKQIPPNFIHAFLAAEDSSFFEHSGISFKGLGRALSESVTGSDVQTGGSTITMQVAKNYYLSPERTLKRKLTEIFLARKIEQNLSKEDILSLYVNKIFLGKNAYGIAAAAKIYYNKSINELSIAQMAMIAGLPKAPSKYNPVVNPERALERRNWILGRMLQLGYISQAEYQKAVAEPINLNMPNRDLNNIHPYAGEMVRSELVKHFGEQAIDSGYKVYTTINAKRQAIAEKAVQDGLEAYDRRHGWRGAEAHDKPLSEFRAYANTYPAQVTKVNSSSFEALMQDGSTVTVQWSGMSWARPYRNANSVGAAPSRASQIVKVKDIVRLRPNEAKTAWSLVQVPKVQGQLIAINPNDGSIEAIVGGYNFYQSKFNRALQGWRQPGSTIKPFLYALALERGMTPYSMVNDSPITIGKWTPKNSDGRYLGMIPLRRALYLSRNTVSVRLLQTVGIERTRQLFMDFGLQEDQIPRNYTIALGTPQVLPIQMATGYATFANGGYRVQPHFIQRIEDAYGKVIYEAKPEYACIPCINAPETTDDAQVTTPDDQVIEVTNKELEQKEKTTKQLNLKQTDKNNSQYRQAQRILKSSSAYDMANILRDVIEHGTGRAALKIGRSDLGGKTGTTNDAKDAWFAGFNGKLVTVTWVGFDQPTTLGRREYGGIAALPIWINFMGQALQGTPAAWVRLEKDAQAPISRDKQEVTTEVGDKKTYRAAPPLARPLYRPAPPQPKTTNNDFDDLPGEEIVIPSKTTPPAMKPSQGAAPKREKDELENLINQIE
Procedure, shortened: as §1

P. aeruginosa CDC-0090 = assay: microbe, parasite or virus in culture; assay type: cell-based; conditions: Pseudomonas aeruginosa, CDC0090, read-out: Minimum inhibitory concentration, P. aeruginosa CDC-0090

Compound | MIC (P. aeruginosa CDC-0054) | MIC [1] | MIC (A. baumannii ATCC 17978) | MIC (P. aeruginosa ATCC 27853) | MIC (A. baumannii CDC-0045) | MIC [2] | MIC (A. baumannii ATCC 19606) | EC50 (A. baumannii PBP2) | MIC (P. aeruginosa CDC-0110) | EC50 (A. baumannii PBP1a) | MIC (P. aeruginosa CDC-0090)
O=C(O)c1c(F)ccc2c1OB(O)[C@@H](NC(=O)[C@H](NC(=O)N1CCN(C3CCN(C(=O)c4ccc(O)c(O)c4Cl)CC3)C1=O)c1ccc(P(=O)(O)O)cc1)C2 [Example 494, (R)-3-((R)-2-(3-(1-(2-chloro-3,4-dihydroxybenzoyl)piperidin-4-yl)-2-oxoimidazolidine-1-carboxamido)-2-(4-phosphonophenyl)acetamido)-7-fluoro-2-hydroxy-3,4-dihydro-2H-benzo[e][1,2]oxaborinine-8-carboxylic acid] | < 1 µg/mL | < 1 µg/mL | < 1 µg/mL | < 1 µg/mL | < 1 µg/mL | < 1 µg/mL | < 1 µg/mL | 10 to 50 µM | < 1 µg/mL | 50 to 250 µM | < 1 µg/mL
O=C(O)c1c(F)ccc2c1OB(O)[C@@H](NC(=O)[C@H](NC(=O)N1CCN(C3CCN(C(=O)c4cc(O)c(O)c(Cl)c4)CC3)C1=O)c1ccc(P(=O)(O)O)cc1)C2 [Example 496, (R)-3-((R)-2-(3-(1-(3-chloro-4,5-dihydroxybenzoyl)piperidin-4-yl)-2-oxoimidazolidine-1-carboxamido)-2-(4-phosphonophenyl)acetamido)-7-fluoro-2-hydroxy-3,4-dihydro-2H-benzo[e][1,2]oxaborinine-8-carboxylic acid] | < 1 µg/mL | < 1 µg/mL | < 1 µg/mL | < 1 µg/mL | < 1 µg/mL | < 1 µg/mL | < 1 µg/mL | < 10 µM | < 1 µg/mL | < 10 µM | < 1 µg/mL
O=C(O)c1c(F)ccc2c1OB(O)[C@@H](NC(=O)[C@H](NC(=O)N1CCN(Cc3ccc(O)c(O)c3Cl)C(=O)C1=O)c1cc(F)c(P(=O)(O)O)c(F)c1)C2 [Example 502, (R)-3-((R)-2-(4-(2-chloro-3,4-dihydroxybenzyl)-2,3-dioxopiperazine-1-carboxamido)-2-(3,5-difluoro-4-phosphonophenyl)acetamido)-7-fluoro-2-hydroxy-3,4-dihydro-2H-benzo[e][1,2]oxaborinine-8-carboxylic acid] | < 1 µg/mL | < 1 µg/mL | < 1 µg/mL | < 1 µg/mL | < 1 µg/mL | < 1 µg/mL | < 1 µg/mL | < 10 µM | < 1 µg/mL | 10 to 50 µM | < 1 µg/mL
O=C(NCCN1CCN(C(=O)N[C@@H](C(=O)N[C@H]2Cc3ccc(F)c(C(=O)O)c3OB2O)c2ccc(P(=O)(O)O)cc2)C(=O)C1=O)c1ccc(O)c(O)c1Cl [Example 503, (R)-3-((R)-2-(4-(2-(2-chloro-3,4-dihydroxybenzamido)ethyl)-2,3-dioxopiperazine-1-carboxamido)-2-(4-phosphonophenyl)acetamido)-7-fluoro-2-hydroxy-3,4-dihydro-2H-benzo[e][1,2]oxaborinine-8-carboxylic acid] | < 1 µg/mL | < 1 µg/mL | < 1 µg/mL | < 1 µg/mL | 2 to 4 µg/mL (≈ 2.53 to 5.05 µM) | < 1 µg/mL | < 1 µg/mL | 10 to 50 µM | < 1 µg/mL | 10 to 50 µM | < 1 µg/mL
O=C(O)c1cccc2c1OB(O)[C@@H](NC(=O)[C@H](NC(=O)N1CCN(Cc3cc(F)c(O)c(O)c3Cl)C(=O)C1=O)c1ccc(P(=O)(O)O)cc1)C2 [Example 504, (R)-3-((R)-2-(4-(2-chloro-5-fluoro-3,4-dihydroxybenzyl)-2,3-dioxopiperazine-1-carboxamido)-2-(4-phosphonophenyl)acetamido)-2-hydroxy-3,4-dihydro-2H-benzo[e][1,2]oxaborinine-8-carboxylic acid] | < 1 µg/mL | < 1 µg/mL | < 1 µg/mL | < 1 µg/mL | < 1 µg/mL | < 1 µg/mL | < 1 µg/mL | < 10 µM | < 1 µg/mL | < 10 µM | < 1 µg/mL
O=C(O)c1c(F)ccc2c1OB(O)[C@@H](NC(=O)C(NC(=O)N1CCN(S(=O)(=O)c3ccc(O)c(O)c3Cl)C1=O)c1ccc(P(=O)(O)O)cc1)C2 (stereo partly drawn) [Example 505, (3R)-3-(2-(3-((2-chloro-3,4-dihydroxyphenyl)sulfonyl)-2-oxoimidazolidine-1-carboxamido)-2-(4-phosphonophenyl)acetamido)-7-fluoro-2-hydroxy-3,4-dihydro-2H-benzo[e][1,2]oxaborinine-8-carboxylic acid] | < 1 µg/mL | < 1 µg/mL | < 1 µg/mL | < 1 µg/mL | < 1 µg/mL | < 1 µg/mL | < 1 µg/mL | < 10 µM | < 1 µg/mL | < 10 µM | < 1 µg/mL
